According to publication PMC4433622 (Cancer research, 2015):
Where a chain is given by its changes, count along the chain named. Names and notes keep the numbering of the source. Each block holds one molecule with its values, some of them ahead of it. Peptide text beside a SMILES is read from it. * marks the point of attachment. Cbz = O=C(OCc1ccccc1)*; CH2F = FC*

Tests used:
MCF-7 cells = test: Apoptosis; format: cell-based, human; conditions: for apoptosis (PARP cleavage, nuclear fragmentation) together with TNFα / apoptosis (PARP cleavage, nuclear fragmentation), agent alone: MCF-7 cells, 9 h; for apoptosis (PARP cleavage, nuclear fragmentation) together with TNFα: with TNFα 10 ng/ml, Z-10 7.5 µM, Z-12 5 µM; for PARP cleavage induced by the combination of TNFα and Z compounds: effect of added agent on the combination
[1] = system: IκBα, IKKα/β in MCF-7 cells; test: TNFα-induced IκBα degradation and IKKα/β phosphorylation, immunoblotting; format: cell-based, human; conditions: for TNFα-induced IκBα degradation / TNFα-induced IKKα/β phosphorylation: TNFα 10 ng/ml, Z-10 7.5 µM, Z-12 5 µM
Akt = conditions: by preventing the interaction of tRXRα and p85α; cited from earlier work
Gal4-DBD-RXRα-LBD = target: T1, Gal4-DBD-RXRα-LBD (Homo sapiens, UniProt P19793); test: Mammalian one hybrid assay, Gal4-DBD-RXRα-LBD with pG5-luc reporter; format: cell-based; conditions: HEK293T cells; for Gal4-DBD-RXRα-LBD transcriptional activity (relative luciferase activity): 10 µM, 12 h
T1 sequence (P19793 227-458 limits assumed): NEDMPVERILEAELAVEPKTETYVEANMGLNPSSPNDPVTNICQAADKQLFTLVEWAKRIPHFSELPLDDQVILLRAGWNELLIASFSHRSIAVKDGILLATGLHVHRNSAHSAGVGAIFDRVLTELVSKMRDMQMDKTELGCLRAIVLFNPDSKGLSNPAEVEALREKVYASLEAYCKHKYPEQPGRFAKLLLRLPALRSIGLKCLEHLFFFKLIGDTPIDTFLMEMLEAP

LXRα = LXRα (Homo sapiens, UniProt Q13133); test: Mammalian one hybrid assay, LXRα chimeric reporter; format: cell-based; conditions: HEK293T cells, 5 µM, 12 h
Chain of LXRα (Q13133 209-447 limits assumed): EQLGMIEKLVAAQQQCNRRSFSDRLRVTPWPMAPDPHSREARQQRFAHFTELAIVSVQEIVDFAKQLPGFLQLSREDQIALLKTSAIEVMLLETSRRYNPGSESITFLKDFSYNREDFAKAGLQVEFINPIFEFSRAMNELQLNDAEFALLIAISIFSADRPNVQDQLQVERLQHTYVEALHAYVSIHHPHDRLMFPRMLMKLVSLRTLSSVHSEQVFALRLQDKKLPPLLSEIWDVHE

Gal4-DBD-RARα-LBD = Gal4-DBD-RARα-LBD (Homo sapiens, UniProt P10276); test: Mammalian one hybrid assay, Gal4-DBD-RARα-LBD; format: cell-based; conditions: HEK293T cells, 5 µM, 12 h
Chain of Gal4-DBD-RARα-LBD (P10276 183-417 limits assumed): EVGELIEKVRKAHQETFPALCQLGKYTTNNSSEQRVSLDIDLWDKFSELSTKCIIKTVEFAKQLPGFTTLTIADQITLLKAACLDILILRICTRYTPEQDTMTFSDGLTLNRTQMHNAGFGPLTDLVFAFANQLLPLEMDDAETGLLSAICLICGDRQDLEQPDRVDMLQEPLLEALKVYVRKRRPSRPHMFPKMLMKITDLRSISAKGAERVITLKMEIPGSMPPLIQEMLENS

p65 in MCF-7 cells = test: TNFα-induced p65 nuclear translocation, immunostaining; format: cell-based, human; conditions: 10 µM pretreatment 1 h, TNFα 10 ng/ml 30 min
RIP1 in MCF-7 cells = test: tRXRα-promoted TNFα-induced RIP1 ubiquitination; format: cell-based, human; conditions: 10 µM 1 h, TNFα 20 ng/ml 5 min
MCF-7 xenografts = MCF-7 xenografts in nude mice; format: in vivo, Nude mice (BALB/c); conditions: MCF-7 bearing mice, 30 mg/kg oral once a day
RARγ = RARγ (Homo sapiens, UniProt P13631); test: Mammalian one hybrid assay, RARγ chimeric reporter; format: cell-based; conditions: HEK293T cells, 5 µM, 12 h
Chain of RARγ (P13631 185-419 limits assumed, species assumed): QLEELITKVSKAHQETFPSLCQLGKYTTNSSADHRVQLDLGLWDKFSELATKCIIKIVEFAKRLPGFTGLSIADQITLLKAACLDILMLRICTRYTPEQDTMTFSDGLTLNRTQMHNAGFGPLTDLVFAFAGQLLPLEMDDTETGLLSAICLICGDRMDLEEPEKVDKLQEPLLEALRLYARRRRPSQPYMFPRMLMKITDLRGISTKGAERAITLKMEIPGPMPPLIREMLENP

GR = GR (Homo sapiens, UniProt P04150); test: Mammalian one hybrid assay, GR chimeric reporter; format: cell-based; conditions: HEK293T cells, 5 µM, 12 h
Chain of GR (P04150 524-758 limits assumed): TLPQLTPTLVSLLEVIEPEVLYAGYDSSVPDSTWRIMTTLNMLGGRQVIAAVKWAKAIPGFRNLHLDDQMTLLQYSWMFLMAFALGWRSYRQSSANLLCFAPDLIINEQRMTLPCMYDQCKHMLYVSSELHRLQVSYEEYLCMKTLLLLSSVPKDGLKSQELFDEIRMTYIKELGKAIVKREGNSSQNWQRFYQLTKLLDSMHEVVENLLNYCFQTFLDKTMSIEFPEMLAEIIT

Gal4-DBD-ERα-LBD = Gal4-DBD-ERα-LBD (Homo sapiens, UniProt P03372); test: Mammalian one hybrid assay, Gal4-DBD-ERα-LBD; format: cell-based; conditions: HEK293T cells, 5 µM, 12 h
Chain of Gal4-DBD-ERα-LBD (P03372 311-547 limits assumed): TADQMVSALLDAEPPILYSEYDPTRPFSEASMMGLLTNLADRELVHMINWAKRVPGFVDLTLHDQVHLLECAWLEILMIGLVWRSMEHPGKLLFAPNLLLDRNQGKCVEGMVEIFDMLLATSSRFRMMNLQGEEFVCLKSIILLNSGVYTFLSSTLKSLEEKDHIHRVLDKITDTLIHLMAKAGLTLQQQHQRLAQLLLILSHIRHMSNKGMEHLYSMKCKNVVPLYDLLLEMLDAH

NFκB = NFκB reporter gene assay; format: cell-based
PPARγ = PPARγ (Homo sapiens, UniProt P37231); test: Mammalian one hybrid assay, PPARγ chimeric reporter; format: cell-based; conditions: HEK293T cells, 5 µM, 12 h
Chain of PPARγ (P37231 238-503 limits assumed, species assumed): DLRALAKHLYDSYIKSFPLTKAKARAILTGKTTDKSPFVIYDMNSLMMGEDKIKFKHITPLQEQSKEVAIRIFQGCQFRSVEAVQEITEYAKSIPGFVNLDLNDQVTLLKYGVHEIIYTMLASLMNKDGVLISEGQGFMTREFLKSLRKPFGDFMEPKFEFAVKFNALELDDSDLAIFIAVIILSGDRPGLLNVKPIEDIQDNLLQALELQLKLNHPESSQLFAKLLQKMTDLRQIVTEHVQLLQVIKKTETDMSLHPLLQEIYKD

RXRα-LBD [2] = target: T2, RXRα-LBD (Homo sapiens, UniProt P19793); test: Differential scanning calorimetry; format: binding
T2 sequence (P19793 223-462): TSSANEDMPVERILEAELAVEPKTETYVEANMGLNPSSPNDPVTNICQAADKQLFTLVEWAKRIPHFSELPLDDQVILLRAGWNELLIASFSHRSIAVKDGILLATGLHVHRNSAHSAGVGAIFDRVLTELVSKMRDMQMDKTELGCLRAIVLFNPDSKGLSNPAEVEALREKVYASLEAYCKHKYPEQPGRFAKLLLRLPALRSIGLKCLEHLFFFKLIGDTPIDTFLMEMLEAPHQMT

RXRα-LBD [3] = target: T2, RXRα-LBD; test: Ligand competition assay with [3H]9-cis-RA; format: binding
RXRα-LBD [4] = target: T2, RXRα-LBD; test: Non-denaturing PAGE of RXRα-LBD oligomers; conditions: Z compounds 10 µM, 9-cis-RA 0.5 µM, 3 h
RXRα homodimer = RXRα homodimer (Homo sapiens, UniProt P19793); test: RXRE-luciferase reporter assay; conditions: HEK293T cells, 12 h
Chain of RXRα homodimer (P19793 whole entry): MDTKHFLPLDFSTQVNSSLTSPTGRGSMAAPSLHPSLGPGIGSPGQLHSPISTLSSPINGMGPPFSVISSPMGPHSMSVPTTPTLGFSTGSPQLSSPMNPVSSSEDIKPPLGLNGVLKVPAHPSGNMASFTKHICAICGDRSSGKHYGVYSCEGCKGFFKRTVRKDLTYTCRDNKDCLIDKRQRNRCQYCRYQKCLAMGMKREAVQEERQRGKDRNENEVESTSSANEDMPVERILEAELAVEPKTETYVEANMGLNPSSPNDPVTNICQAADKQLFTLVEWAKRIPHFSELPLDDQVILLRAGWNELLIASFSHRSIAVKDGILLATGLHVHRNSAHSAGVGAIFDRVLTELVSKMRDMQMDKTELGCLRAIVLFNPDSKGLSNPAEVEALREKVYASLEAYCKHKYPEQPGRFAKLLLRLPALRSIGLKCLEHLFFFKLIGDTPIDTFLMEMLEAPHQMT

tRXRα with TRAF2 = tRXRα with TRAF2 (Homo sapiens, UniProt P19793); test: TNFα-induced TRAF2/tRXRα complex formation, co-immunoprecipitation; conditions: HEK293T cells, 5 µM 1 h, TNFα 40 ng/ml 15 min
Chain of tRXRα with TRAF2 (P19793 81-462 limits assumed): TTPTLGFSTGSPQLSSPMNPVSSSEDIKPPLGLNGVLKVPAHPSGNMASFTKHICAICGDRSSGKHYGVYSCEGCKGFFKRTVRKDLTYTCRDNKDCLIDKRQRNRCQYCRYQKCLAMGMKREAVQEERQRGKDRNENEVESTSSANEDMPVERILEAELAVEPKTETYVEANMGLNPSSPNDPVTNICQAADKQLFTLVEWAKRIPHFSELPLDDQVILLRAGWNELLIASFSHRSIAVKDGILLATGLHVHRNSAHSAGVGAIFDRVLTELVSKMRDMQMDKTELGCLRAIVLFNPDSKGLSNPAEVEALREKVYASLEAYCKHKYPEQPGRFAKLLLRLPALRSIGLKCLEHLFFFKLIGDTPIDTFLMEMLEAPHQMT

RXRα-LBD [5] = target: T2, RXRα-LBD; test: Surface plasmon resonance; format: binding
Gal4-DBD-RXRα-LBD/R316E = Gal4-DBD-RXRα-LBD/R316E (Homo sapiens, UniProt P19793, R316E); test: Mammalian one hybrid assay, Gal4-DBD-RXRα-LBD/R316E; format: cell-based; conditions: HEK293T cells; 9-cis-RA 0.1 µM, Z-10 and Z-12 5 µM
Chain of Gal4-DBD-RXRα-LBD/R316E (P19793 227-458 R316E limits assumed): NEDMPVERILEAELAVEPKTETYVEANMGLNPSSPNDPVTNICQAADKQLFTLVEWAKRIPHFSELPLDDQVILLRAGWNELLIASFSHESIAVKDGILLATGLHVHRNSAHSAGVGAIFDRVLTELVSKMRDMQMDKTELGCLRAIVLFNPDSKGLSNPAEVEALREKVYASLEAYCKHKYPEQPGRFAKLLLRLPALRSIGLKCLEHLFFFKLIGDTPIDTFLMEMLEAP

Gal4-DBD-RXRα-LBD C432S = Gal4-DBD-RXRα-LBD C432S (Homo sapiens, UniProt P19793, C432S); test: Mammalian one hybrid assay, Gal4-DBD-RXRα-LBD C432S mutant; format: cell-based; conditions: HEK293T cells; 9-cis-RA 0.1 µM, Z-10 and Z-12 5 µM
Chain of Gal4-DBD-RXRα-LBD C432S (P19793 227-458 C432S limits assumed): as the sequence (P19793 227-458 R316E limits assumed) above, with E90R, C206S counted along it

tRXRα with p85α = test: TNFα-induced interaction of tRXRα with p85α; format: cell-based
SEC = target: the molecule itself; test: SEC

Molecule: CC1=C(/C=C/C(C)=C\C=C\C(C)=C\C(=O)O)C(C)(C)CCC1 [9-cis-RA, 9-cis-retinoic acid]
- apoptosis (PARP cleavage, nuclear fragmentation) together with TNFα (MCF-7 cells): little effect
- PARP cleavage induced by the combination of TNFα and Z compounds (MCF-7 cells): able to suppress
- TNFα-induced IκBα degradation ([1]; MCF-7 cells): did not show apparent effects

Molecule: CC1=C(CC(=O)O)c2cc(F)ccc2/C1=C\c1ccc(C(C)C)cc1 [K-80003]
- inhibition of TNFα-induced Akt activation (Akt): could inhibit

Molecule: CCCCCOc1cc2c(cc1-c1cc(/C=C/C(=O)O)ccc1O)C(C)(C)CCC2(C)C [UVI3003]
- apoptosis (PARP cleavage, nuclear fragmentation) together with TNFα (MCF-7 cells): little effect
- PARP cleavage induced by the combination of TNFα and Z compounds (MCF-7 cells): able to suppress
- TNFα-induced IκBα degradation ([1]; MCF-7 cells): did not show apparent effects

Molecule: Cc1ccc(/C=C/[N+](=O)[O-])cc1 [Z-1, (E)-1-methyl-4-(2-nitrovinyl)benzene]
- Gal4-DBD-RXRα-LBD transcriptional activity (relative luciferase activity) (Gal4-DBD-RXRα-LBD): selectively activated

Molecule: O=[N+]([O-])/C=C/c1cccc2ccccc12 [Z-10, (E)-1-(2-nitrovinyl)naphthalene]
- activation of LXRα chimeric reporter (LXRα): neither of them significantly activated
- activation of RARα chimeric reporter (Gal4-DBD-RARα-LBD): neither of them significantly activated
- TNFα-induced p65 nuclear translocation (p65 in MCF-7 cells): significantly inhibited
- RXRα/Δ80-promoted TNFα-induced RIP1 ubiquitination (RIP1 in MCF-7 cells): largely blocked
- tumor growth and apoptosis of cancer cells, compound alone (MCF-7 xenografts): Tumor growth inhibition and extensive apoptosis of cancer cells
- apoptosis (PARP cleavage, nuclear fragmentation), agent alone (MCF-7 cells): did not happen
- apoptosis (PARP cleavage, nuclear fragmentation) together with TNFα (MCF-7 cells): significant apoptosis
- activation of RARγ chimeric reporter (RARγ): neither of them significantly activated
- activation of GR chimeric reporter (GR): neither of them significantly activated
- activation of ERα chimeric reporter (Gal4-DBD-ERα-LBD): neither of them significantly activated
- inhibition of NFκB activation by TNFα (reporter gene assay) (NFκB): dose-dependently inhibited
- activation of PPARγ chimeric reporter (PPARγ): neither of them significantly activated
- inhibitory effect on TNFα-induced IκBα degradation, MCF-7 versus H460 cells ([1]; 7.5 µM 1 h, TNFα 30 min, MCF-7 express higher RXRα and tRXRα than H460): stronger in MCF-7 cells
- TNFα-induced IKKα/β phosphorylation ([1]; MCF-7 cells): significantly inhibited
- TNFα-induced IκBα degradation ([1]; MCF-7 cells): significantly inhibited

- Tm values of RXRα-LBD protein (DSC) (RXRα-LBD [2]): shifted higher
- Gal4-DBD-RXRα-LBD transcriptional activity (relative luciferase activity) (Gal4-DBD-RXRα-LBD): unable to activate RXRα
- IC50 (RXRα-LBD [3]): 330 nM
Molecule: O=[N+]([O-])/C=C/c1ccc2ccccc2c1 [Z-11, (E)-2-(2-nitrovinyl)naphthalene]
- RXRα-LBD tetramer/dimer formation on native gel (RXRα-LBD [4]): induced higher levels of RXRα-LBD oligomerization

- transactivation of RXRα homodimer (RXRE-luciferase) (RXRα homodimer; 5 µM): failed to induce the transactivation
- activation of LXRα chimeric reporter (LXRα): neither of them significantly activated
- TNFα-induced interaction of tRXRα with TRAF2 (tRXRα with TRAF2): strongly inhibited
- activation of RARα chimeric reporter (Gal4-DBD-RARα-LBD): neither of them significantly activated
- Tm values of RXRα-LBD protein (DSC) (RXRα-LBD [2]): shifted higher
- Kd (RXRα-LBD [5]): 1950 nM
- RXRα transactivation, dose dependence (Gal4-DBD-RXRα-LBD): dose-dependently activated
- RXRα transactivation relative to activity of 0.1 µM 9-cis-RA (Gal4-DBD-RXRα-LBD; compound at 10 µM, % of activity of 0.1 µM 9-cis-RA): about 50%
- activation of RARγ chimeric reporter (RARγ): neither of them significantly activated
- transactivation of Gal4-DBD-RXRα-LBD/R316E (Gal4-DBD-RXRα-LBD/R316E): strongly activated
- activation of GR chimeric reporter (GR): neither of them significantly activated
- IC50 (RXRα-LBD [3]): 810 nM
- RXRα-LBD tetramer/dimer formation on native gel (RXRα-LBD [4]): induced homodimer formation
- activation of ERα chimeric reporter (Gal4-DBD-ERα-LBD): neither of them significantly activated
- activation of Gal4-DBD-RXRα-LBD with Cys432 mutated to Ser (Gal4-DBD-RXRα-LBD C432S): completely incapacitated
- activation of PPARγ chimeric reporter (PPARγ): neither of them significantly activated
Molecule: O=[N+]([O-])/C=C/c1c2ccccc2cc2ccccc12 [Z-12, (E)-9-(2-nitrovinyl)anthracene]
- effect on 9-cis-RA-induced RXRα homodimer transactivation (RXRα homodimer; 5 µM with 9-cis-RA 0.1 µM): inhibited 9-cis-RA-induced transactivation
- TNFα-induced p65 nuclear translocation (p65 in MCF-7 cells): significantly inhibited
- tumor growth and apoptosis of cancer cells, compound alone (MCF-7 xenografts): Tumor growth inhibition and extensive apoptosis of cancer cells
- apoptosis (PARP cleavage, nuclear fragmentation), agent alone (MCF-7 cells): did not happen
- apoptosis (PARP cleavage, nuclear fragmentation) together with TNFα (MCF-7 cells): significant apoptosis
- inhibition of TNFα-induced interaction of tRXRα with p85α (tRXRα with p85α): could not inhibit
- TNFα-induced IKKα/β phosphorylation ([1]; MCF-7 cells): significantly inhibited
- TNFα-induced IκBα degradation ([1]; MCF-7 cells): significantly inhibited
- effect on inhibiting TNFα-induced IκBα degradation when TRAF2 expression was suppressed by siRNA ([1]; MCF-7 cells, TRAF2 siRNA 36 h, TNFα 10 ng/ml 30 min): dramatically reduced

Molecule: COC(=O)C[C@H](NC(=O)[C@H](C)NC(=O)[C@@H](NC(=O)OCc1ccccc1)C(C)C)C(=O)CF [Z-VAD-FMK] (Cbz-Val-Ala-Asp(OMe)-CH2F)
- PARP cleavage induced by the combination of TNFα and Z compounds (MCF-7 cells): completely blocked

Molecule: CD3254
- apoptosis (PARP cleavage, nuclear fragmentation) together with TNFα (MCF-7 cells): little effect
- PARP cleavage induced by the combination of TNFα and Z compounds (MCF-7 cells): able to suppress
- TNFα-induced IκBα degradation ([1]; MCF-7 cells): did not show apparent effects

Molecule: TNFα
- apoptosis (PARP cleavage, nuclear fragmentation), agent alone (MCF-7 cells): did not happen

B1: RXRα-LBD/C432W (domain or fragment, human, UniProt P19793 223-462, looked up)
chain: T2 sequence (P19793 223-462) with C210W
- stoichiometry N (SEC): 2
